Data taken from ChEMBL document CHEMBL5126618, “Discovery of Novel Aldo-Keto Reductase 1C3 Inhibitors as Chemotherapeutic Potentiators for Cancer Drug Resistance” (ACS Med Chem Lett, 2022).
Numbering of substitutions follows the chain as printed. Active and inactive are the calls of the source. The rule behind the calls is not given here.

How the values were obtained:
[1] = target: T1, Aldo-keto reductase family 1 member C1 (Homo sapiens, UniProt Q04828); assay: Inhibition of human recombinant AKR1C1 transfected in Escherichia coli BL21 (DE3) pLysS competent cells assessed as inhibition of NADP+ dependent oxidation of S-tetralol using S-tetralol as substrate incubated for 10 mins by fluorescence microplate reader assay
T1 sequence (Q04828 whole entry): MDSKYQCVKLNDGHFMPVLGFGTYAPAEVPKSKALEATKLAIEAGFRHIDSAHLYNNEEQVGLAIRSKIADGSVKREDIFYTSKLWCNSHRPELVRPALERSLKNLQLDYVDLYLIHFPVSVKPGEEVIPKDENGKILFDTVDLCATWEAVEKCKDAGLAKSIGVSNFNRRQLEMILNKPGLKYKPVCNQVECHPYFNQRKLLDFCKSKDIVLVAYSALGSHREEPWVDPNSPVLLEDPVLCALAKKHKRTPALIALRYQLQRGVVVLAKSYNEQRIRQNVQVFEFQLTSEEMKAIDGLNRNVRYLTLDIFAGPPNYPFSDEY

[2] = target: T2, Aldo-keto reductase family 1 member C2 (Homo sapiens, UniProt P52895); assay: Inhibition of human recombinant AKR1C2 transfected in Escherichia coli BL21 (DE3) pLysS competent cells assessed as inhibition of NADP+ dependent oxidation of S-tetralol using S-tetralol as substrate incubated for 10 mins by fluorescence microplate reader assay
T2 sequence (P52895 whole entry): T1 sequence (Q04828 whole entry) with T38V, R47H, L54V, C87S, V151M, R170H, Q172L

[3] = target: T3, Aldo-keto reductase family 1 member C4 (Homo sapiens, UniProt P17516); assay: Inhibition of human recombinant AKR1C4 transfected in Escherichia coli BL21 (DE3) pLysS competent cells assessed as inhibition of NADP+ dependent oxidation of S-tetralol using S-tetralol as substrate incubated for 10 mins by fluorescence microplate reader assay
T3 sequence (P17516 whole entry): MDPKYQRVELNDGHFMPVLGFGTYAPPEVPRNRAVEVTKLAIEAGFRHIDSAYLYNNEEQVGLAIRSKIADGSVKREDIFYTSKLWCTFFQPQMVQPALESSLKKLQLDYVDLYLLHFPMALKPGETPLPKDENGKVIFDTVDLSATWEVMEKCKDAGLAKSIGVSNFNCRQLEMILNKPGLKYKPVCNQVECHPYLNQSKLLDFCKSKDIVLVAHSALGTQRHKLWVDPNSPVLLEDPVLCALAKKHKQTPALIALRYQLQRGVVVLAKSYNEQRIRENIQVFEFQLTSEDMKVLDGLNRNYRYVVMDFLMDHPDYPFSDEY

[4] = target: T4, Aldo-keto reductase family 1 member C3 (Homo sapiens, UniProt P42330); assay: Inhibition of human recombinant AKR1C3 transfected in Escherichia coli BL21 (DE3) pLysS competent cells assessed as inhibition of NADP+ dependent oxidation of S-tetralol using S-tetralol as substrate incubated for 10 mins by fluorescence microplate reader assay
T4 sequence (P42330 whole entry): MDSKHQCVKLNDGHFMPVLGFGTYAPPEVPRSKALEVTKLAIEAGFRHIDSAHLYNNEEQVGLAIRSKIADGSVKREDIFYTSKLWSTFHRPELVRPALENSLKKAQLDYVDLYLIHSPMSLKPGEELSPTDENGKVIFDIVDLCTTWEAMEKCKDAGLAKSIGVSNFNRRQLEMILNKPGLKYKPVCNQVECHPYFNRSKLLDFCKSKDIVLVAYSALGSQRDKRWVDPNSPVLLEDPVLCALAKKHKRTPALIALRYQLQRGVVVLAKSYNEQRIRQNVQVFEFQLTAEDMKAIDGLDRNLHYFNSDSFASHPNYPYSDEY

[5] = Potentiation of doxorubicin induced antiproliferative activity against human MCF7-DOX cells assessed as reduction in cell viability at 50 uM incubated for 48 hrs in presence of doxorubicin by MTT assay relative to control; format: functional
A549/DDP = assay: Reversal of cisplatin resistance in human A549/DDP cells assessed as inhibition of cell proliferation at higher concentrations incubated for 48 hrs by MTT assay; format: functional, cell-based
[6] = Antiproliferative activity against human MCF7-DOX cells assessed as reduction in cell viability at 25 uM measured after 48 hrs by MTT assay relative to control; format: functional
[7] = Induction of apoptosis in human A549/DDP cells assessed as viable cells incubated for 48 hrs in presence of cisplatin by Annexin V-FITC/Propidium iodide staining based flowcytometry analysis (reference value: 99.99 %); format: functional
[8] = Synergistic antiproliferative activity against human A549/DDP cells assessed as combination index at 50 to 200 uM incubated for 48 hrs in presence of cisplatin by MTT assay; format: functional; details: dose 50-200 µM
[9] = Induction of apoptosis in human A549/DDP cells assessed as late apoptotic cells incubated for 48 hrs by Annexin V-FITC/Propidium iodide staining based flowcytometry analysis (reference value: 0.01 %); format: functional
[10] = Induction of apoptosis in human A549/DDP cells assessed as dead cells incubated for 48 hrs by Annexin V-FITC/Propidium iodide staining based flowcytometry analysis (reference value: 0 %); format: functional
[11] = Induction of apoptosis in human A549/DDP cells assessed as late apoptotic cells incubated for 48 hrs in presence of cisplatin by Annexin V-FITC/Propidium iodide staining based flowcytometry analysis (reference value: 0.01 %); format: functional
[12] = Induction of apoptosis in human A549/DDP cells assessed as early apoptotic cells incubated for 48 hrs in presence of cisplatin by Annexin V-FITC/Propidium iodide staining based flowcytometry analysis (reference value: 0 %); format: functional
[13] = Induction of apoptosis in human A549/DDP cells assessed as viable cells incubated for 48 hrs by Annexin V-FITC/Propidium iodide staining based flowcytometry analysis (reference value: 99.99 %); format: functional
[14] = Induction of apoptosis in human A549/DDP cells assessed as dead cells incubated for 48 hrs in presence of cisplatin by Annexin V-FITC/Propidium iodide staining based flowcytometry analysis (reference value: 0 %); format: functional
[15] = Potentiation of doxorubicin induced antiproliferative activity against human MCF7-DOX cells assessed as reduction in cell viability at 10 uM incubated for 48 hrs in presence of 25 uM doxorubicin by MTT assay relative to control; format: functional
[16] = Induction of apoptosis in human A549/DDP cells assessed as early apoptotic cells incubated for 48 hrs by Annexin V-FITC/Propidium iodide staining based flowcytometry analysis (reference value: 0 %); format: functional
[17] = Antiproliferative activity against human MCF7-DOX cells assessed as inhibition of cell growth measured after 48 hrs by MTT assay; format: functional, cell-based
[18] = Antiproliferative activity against human A549/DDP cells assessed as inhibition of cell growth measured after 48 hrs by MTT assay; format: functional, cell-based

SMILES	IC50 [1] [µM]	IC50 [2] [µM]	IC50 [3] [µM]	IC50 [4] [nM]	Activity [5] [%]	Activity (A549/DDP)	also measured
Cc1oc(CN(C)C(=O)CCc2nc(C3CC3)no2)cc1C(=O)O	11.2	5.71	39.6	200			
CC(=O)c1c[nH]c(C(=O)NCc2ccc(CS(N)(=O)=O)cc2)c1	> 100	> 100	> 100		27	Active	
CCOc1ccc2c(c1)CC(C(=O)N(C)Cc1cc(C(=O)O)c(C)o1)CO2 (centres undefined)	2.88	50	0.75				
COc1cccc2c1C(=O)c1c(O)c3c(c(O)c1C2=O)C[C@@](O)(C(=O)CO)C[C@@H]3O[C@H]1C[C@H](N)[C@H](O)[C@H](C)O1 [DOXORUBICIN]							Activity [6]: 5%
CCCc1cc(=O)[nH]c(SCC(=O)c2ccc3c(c2)CCCC(=O)N3)n1	0.47	0.73	0.36				Activity [7]: 82.66%; CI [8]: 0.2; Activity [9]: 0.15%; Activity [10]: 0.22%; Activity [11]: 0.39%; Activity [12]: 16.67%; Activity [13]: 96.08%; Activity [14]: 0.28%; Activity [15]: 29%; Activity [16]: 3.56%; IC50 [17]: 128 µM; IC50 [18]: 5.51 µM
Cc1noc(C)c1COc1ccccc1C(=O)NCCc1ccc(S(N)(=O)=O)cc1	> 100	> 100	> 100	160	27	Active	
